The values below come from patent US20210170052A1, “THERAPEUTIC METHODS AND COMPOSITIONS FOR SOLID DELIVERY” (Presage Biosciences, Inc., priority 2010, published 2021).

In one assay the test system is lymphoma tumor. The assay can be described thus: Doxorubicin delivered to a lymphoma tumor using a porous tube; fluorescence and brightfield microscopy of tumor slices. Type of assay: in vivo. Particulars: porous tube delivery, three tumor depths. An excerpt:
Doxorubicin was delivered to a lymphoma tumor using a porous tube of the method. The tumor was then excised and sectioned. […] Regions of doxorubicin fluorescence and cell death are localized to a zone within the tumor slice, reflecting spatially constrained doxorubicin delivery.

The next assay relates to mouse tumor. Kind of assay: Spatially restricted injection into a mouse tumor with indicator dyes (apoptosis signal imaging). As to conditions: excitation 640 nm, emission 720 nm of the dye, versus control. The format is in vivo. The procedure:
FIG. 14 depicts the use of various indicator dyes according to the method, to monitor spatially restricted delivery of compounds and resulting localized effects on regions of a tumor. A mouse tumor was injected with 1. doxorubicin; and 2. a control. Panel A illustrates excitation at 640 nm and emission at 800 nm of the dye. Panel B illustrates the doxorubicin signal (3.) observed after excitation at 500 nm and emission at 600 nm of doxorubicin. Panel C illustrates an apoptosis signal (4.) observed after excitation at 640 nm and emission at 720 nm of the dye.

Assay [1] deals with Intracranial medulloblastoma model (conditional Patchedl null) mice. Kind of assay: Survival of intracranial medulloblastoma model mice. Type of assay: in vivo, mouse. Particulars: injected daily with 20 mg/kg, monitored for 50 days, versus vehicle only. The protocol:
The results of the in vivo experiment depicted in FIG. 12 predicted that Shh antagonists would have a positive effect on a mouse model of cancer. Intracranial medulloblastoma model (conditional Patchedl null) mice used in this experiment develop medulloblastoma with an early onset and 100% penetrance. Accordingly, mice were injected daily with 20 mg/kg of either A) vehicle plus IPI-926 (n=12); or B) vehicle only (n=11). The mice were monitored for 50 days for survival, and the results depicted in FIG. 13.

Consider `COc1cccc2c1C(=O)c1c(O)c3c(c(O)c1C2=O)C[C@@](O)(C(=O)CO)C[C@@H]3O[C@H]1C[C@H](N)[C@H](O)[C@H](C)O1` [Doxorubicin], for which the “cell death in tumor slices” value with lymphoma tumor is listed as “Cell death was observed in a localized area”. In addition, the apoptosis signal entry in the assay with mouse tumor was “apoptosis overlaps with the region that received doxorubicin”.
As for `CC1=C2C[C@H]3[C@@H](CC[C@@H]4C[C@H](NS(C)(=O)=O)CC[C@@]43C)[C@@H]2CC[C@@]2(C1)O[C@@H]1C[C@H](C)CN[C@H]1[C@H]2C` [IPI-926], the survival result in assay [1] was “significantly increased survival”.
